Like-named read-outs stand apart in the source and are kept apart here.
Tests used:
P-glycoprotein = experiment: P-gp ATPase activity (P-gp Drug interaction Assay Kit); assay type: biochemical
Procedure: In order to test drug interaction with P-glucoprotein (herein-after referred as P-gp) we used an assay based on the study of modulation of ATPase activity from enriched P-gp membrane vesicle preparation (the following kit has been used: P-gp Drug interaction Assay Kit commercially available from SPI BIO France). P-gp ATPase activity was measured by a spectrophotometric method based on monitoring of ADP formation in the vesicle suspension medium. The basal ATPase activity was defined as the activity determined in the absence of any added drug. […]

[1] = test system: orthotopic Hs683 xenograft; experiment: Orthotopic Hs683 xenograft nude mice model, survival; assay type: in vivo; conditions: Temodal p.o. 40 mg/kg three times a week for three weeks followed by UNBS5162 i.v. 10 mg/kg once a week for three weeks
Procedure: In order to evaluate UNBS5162-mediated in vivo anti-tumor effect in glioma models, an orthotopis Hs683 model was used that was previously evidenced as expressing pro-angiogenic chemokines at the most high level. […] In line with this, an experiment combining Temodal to UNBS5162 was performed.
Thus, combining pro-autophagic therapy with an inhibitor of pro-angiogenic chemokines might represent a new manner to treat glioblastoma, at least some types that express high levels of pro-angiogenic chemokines.

BxPC3 = experiment: MTT overall cell growth, BxPC3 cells; assay type: cell-based; conditions: Homo sapiens
Procedure: (§1) Tests were performed in order to rapidly, i.e. within 5 days, measure the effect of the compound of example 2 on the overall cell growth. The test measures the number of metabolically active living cells that are able to transform the yellow product 3-(4,5-dimethylthiazol-2-yl)-2,5-diphenyl tetrazolium bromide (herein referred as MTT) into the blue product formazan dye by mitochondrial reduction. The amount of formazan obtained at the end of the experiment, measured by means of a spectrophotometer, is directly proportional to the number of living cells. Optical density determination thus enables a quantitative measurement of the effect of the investigated compounds as compared to the control condition (untreated cells) and/or to other reference compounds.
Six human cancer cell lines described in table 1 were used in the following MTT tests. These cell lines cover six histological cancer types, being prostate, glioma, pancreas, colon, lung and breast cancers. Cells were allowed to grow in 96 well micro-wells with a flat bottom with an amount of 100 μl of cell suspension per well with 1,000 to 4,000 cells/well depending on the cell type used. Each cell line was seeded in a well known MEM 10% serum culture medium. […]
(§2) After 72 hours of incubation at 37° C. with (experimental conditions) or without (control condition) the compound to be tested, the medium was replaced by 100 μl MTT dissolved in RPMI (1640 without phenol red) at a concentration of 1 mg/ml. […] The micro-wells were shaken for 5 minutes and read on a spectrophotometer at wavelengths of 570 nm (maximum formazan absorbance) and 630 nm (back-ground noise).
For each experimental condition, the mean optical density was calculated, as well as the percentage of remaining living cells in comparison with the control.
(§3) The overall growth of human cancer cell lines was determined by means of the calorimetric MTT (3-[4,5-dimethylthiazol-2-yl]-diphenyl tetrazolium bromide; Sigma) assay, as detailed previously.

[2] = test system: murine and human hematopoietic stem and progenitor cells; experiment: HALO hematotoxicity assay, overall statement; assay type: cell-based
Procedure: (§4) Investigation of the hematotoxic potential of UNBS5162 was undertaken by HemoGenix (Colorado Springs, Colo.). The effects of UNBS5162 on stem and progenitor cell populations from murine and human bone marrow were assessed using HALO (Hematopoietic/Hematotoxicity Assay through Luminescence Output) technology. Stem and hematopoietic progenitor cell populations were isolated from mouse and human bone marrow samples, plated at a concentration of 1.0×10^4 cells/well and cultured for 5 and 7 days, respectively, in the presence of growth factors and increasing concentrations of UNBS5162 ranging from 0.5 nM to 50 μM. The proliferative or growth potential of cell populations was determined from intracellular ATP (iATP) concentrations and a luciferin/luciferase bioluminescence signal detection system. All samples were assayed in eight replicates. The results are presented as estimated inhibitory concentration (IC) values.

A549 = experiment: MTT colorimetric assay, A549 cells; assay type: cell-based; conditions: Homo sapiens, 72 h, 3 days of culturing, mean of six determinations, read-out: IC50 (μM) In Vitro Growth Inhibition
Procedure: as §3

[3] = test system: human A549 NSCLC orthotopic
Procedure: The purpose of the present study was to evaluate the in vivo efficacy of UNBS5162 on human A549 NSCLC orthotopic nude mice model. The endpoint in this experiment was the survival period of the tumor-bearing mice following treatment, as indicated.
The experiment comprised 6 groups of II mice, one group with mice receiving the vehicle only (Ct group) and 5 groups receiving the treatments as indicated in the Table 13. UNBS5162 was dosed i.v. at 10 mg/kg (in lactic acid vehicle). Taxol (Paclitaxel 6 mg/mL, Bristol-Myers Squibb) was dosed i.v. at 20 mg/kg.

Mk-CFC = experiment: HALO hematotoxicity assay, mouse Mk-CFC; assay type: cell-based; conditions: 5 days culture, iATP
Procedure: as §4

PC3 = experiment: MTT overall cell growth, PC3 cells; assay type: cell-based; conditions: Homo sapiens, 72 h; PC-3; 3 days of culturing; mean of six determinations; read-out: IC50 (μM) In Vitro Growth Inhibition
Procedure: as §1, with “compounds. […]” for “compounds.”
as §2
For each experimental condition, the mean optical density was calculated, as well as the percentage of remaining living cells in comparison with the control. […]

DU-145 = experiment: Apoptosis by Annexin V flow cytometry, DU-145; assay type: cell-based, human
Procedure: We used flow cytometry (according to the protocol found in Mijatovic et al. Neoplasia 2006) to determine the percentages of PC-3 and DU-145 positive cells for both Annexin V and propidium iodide and we observed that a maximum of 10% only of PC-3 or DU-145 cells underwent apoptotic processes following a treatment with 10 μM of the compound produced according to example 2 or example 7.
The determination of the percentage of cells undergoing apoptosis was performed using an Annexin V-FITC Apoptosis Detection Kit (Sigma) following the manufacturer's instructions. Each sample was evaluated in triplicate.

## CN(C)CCN1C(=O)c2cccc3cc(NC(N)=O)cc(c23)C1=O [UNBS5162, N-{2-[2-(dimethylamino)ethyl]-1,3-dioxo-2,3-dihydro-1H-benzo[de]isoquinolin-5-yl}urea]
P-glycoprotein; 100 μM (data not shown)
  modulation of Pgp ATPase activity: do not affect Pgp ATPase activity
P-glycoprotein; 2, 10, and 50 μM
  modulation of basal P-gp ATPase activity: does not affect ATPase activity
[1]
  survival period of tumor bearing mice: significantly prolonged the survival period of tumor bearing mice
BxPC3; BXPC-3, 72 h, Bx-PC-3, 3 days of culturing, mean of six determinations, read-out: IC50 (μM) In Vitro Growth Inhibition
  IC50: 9.1 µM
BxPC3; BXPC-3, BxPC3, 72 hours incubation, range of molar concentrations, read-out: IC50
  IC50: 5 to 10 µM
[2]
  concentrations that were toxic (inhibited proliferation): higher than 1 μM
A549
  IC50: 21.2 µM
[3]; UNBS5162 10 mg/kg i.v. in combination with Taxol 20 mg/kg i.v.
  survival of A549 NSCLC xenograft-bearing mice: significantly increased the survival
[3]; UNBS5162 i.v. 10 mg/kg (3i × 6w)
  T/C (%): 102%
Mk-CFC; 120 h
  IC50: 5.94 µM
  IC90: 9.61 µM
Mk-CFC
  IC75: 7.53 µM
PC3
  IC50: 17.3 µM
DU-145; 10 μM
  cells undergoing apoptotic processes (Annexin V and propidium iodide positive): ≤ 10%
DU-145; flow cytometry
  induction of real (early) apoptosis: does not induce real (early) apoptosis
  late apoptotic and necrotic events: induces late apoptotic and necrotic events

Reference: patent publication US20090186915A1, “Compositions and methods for treatment of glioblastoma, gliosarcoma, NSCLC, and head and neck cancer” (Unibioscreen S. A., priority 2006, published 2009)
